The test has as its target Acyl-protein thioesterase 1 (Homo sapiens, UniProt O75608). Nature of the test: Inhibition of APT1.

Chain of Acyl-protein thioesterase 1 (O75608 whole entry): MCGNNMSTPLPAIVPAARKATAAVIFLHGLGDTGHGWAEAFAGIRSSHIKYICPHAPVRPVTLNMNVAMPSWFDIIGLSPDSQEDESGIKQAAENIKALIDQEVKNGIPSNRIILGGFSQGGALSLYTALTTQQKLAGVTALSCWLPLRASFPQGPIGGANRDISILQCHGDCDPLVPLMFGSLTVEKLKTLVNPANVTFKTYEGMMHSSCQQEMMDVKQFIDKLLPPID

By IC50 is commonly meant the point on the concentration scale where inhibition reaches its midpoint. Lower therefore signals inhibition by little substance. `CCCCCCCCCC[C@@H]1C(=O)O[C@H]1CCc1ccc(OC)c(OC)c1` [PALMOSTATIN B]: the IC50 is 670 nM.

The values are drawn from ChEMBL document CHEMBL1671770, “Small molecule inhibition of protein depalmitoylation as a new approach towards downregulation of oncogenic Ras signalling” (Bioorg Med Chem, 2011).
